This passage reports IC50 results from PubChem BioAssay AID624065 (The Scripps Research Institute Molecular Screening Center, 2012).

Activity calls are given as the source filed them. The rule behind the calls is not given here. Where only a bound is given, the exact number is not on record here.

One may read the IC50 as the concentration at which inhibition is half-maximal.

This test has as its target Insulin-degrading enzyme (Homo sapiens) (UniProt P14735). Briefly: inhibition of recombinant IDE cleaving insulin – biochemical, TR-FRET, counter-screen for IDE inhibitor project, late-stage follow-up (AID 624065). Particulars: recombinant IDE insulin degradation. (In general: Time-resolved FRET reads energy transfer from a long-lived donor to a nearby acceptor.)

Chain of Insulin-degrading enzyme (Homo sapiens) (P14735 whole entry, looked up): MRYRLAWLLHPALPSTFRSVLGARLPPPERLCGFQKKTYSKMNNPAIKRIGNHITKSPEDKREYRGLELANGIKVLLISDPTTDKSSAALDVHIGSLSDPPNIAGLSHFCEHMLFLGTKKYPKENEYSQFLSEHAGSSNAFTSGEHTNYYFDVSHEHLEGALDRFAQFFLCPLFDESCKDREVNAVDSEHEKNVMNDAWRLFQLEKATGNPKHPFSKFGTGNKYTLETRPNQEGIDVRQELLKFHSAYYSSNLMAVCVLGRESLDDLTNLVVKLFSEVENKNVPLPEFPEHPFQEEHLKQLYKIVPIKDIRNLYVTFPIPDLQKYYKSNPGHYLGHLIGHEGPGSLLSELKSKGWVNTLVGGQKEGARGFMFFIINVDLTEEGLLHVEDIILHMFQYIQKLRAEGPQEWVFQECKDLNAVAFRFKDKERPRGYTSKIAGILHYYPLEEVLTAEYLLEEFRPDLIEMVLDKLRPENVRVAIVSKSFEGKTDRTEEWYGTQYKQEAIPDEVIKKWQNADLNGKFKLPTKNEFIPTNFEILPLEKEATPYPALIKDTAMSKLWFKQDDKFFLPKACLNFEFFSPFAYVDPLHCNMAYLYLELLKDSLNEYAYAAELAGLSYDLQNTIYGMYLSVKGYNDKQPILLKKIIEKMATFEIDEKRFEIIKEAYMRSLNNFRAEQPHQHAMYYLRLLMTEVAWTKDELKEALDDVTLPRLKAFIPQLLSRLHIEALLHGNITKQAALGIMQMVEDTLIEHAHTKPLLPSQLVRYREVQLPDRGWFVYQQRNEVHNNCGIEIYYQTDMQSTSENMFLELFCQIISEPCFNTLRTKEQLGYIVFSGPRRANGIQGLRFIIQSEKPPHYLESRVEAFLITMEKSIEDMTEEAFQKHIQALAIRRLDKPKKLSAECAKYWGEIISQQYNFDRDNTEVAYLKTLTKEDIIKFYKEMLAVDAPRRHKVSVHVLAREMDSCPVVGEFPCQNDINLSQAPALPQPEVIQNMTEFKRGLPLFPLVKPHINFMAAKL

Regarding `CCN(CC)c1ccc(/C=C2\C(=N)N3N=C(CC(=O)N4CCOCC4)SC3=NC2=O)cc1`, the IC50 was > 10 µM (inactive).

In the case of `O=C(C1CC1)N1CCN(c2ccnc3cc(Cl)ccc23)CC1`, the IC50 is > 10 µM (inactive).

In the case of `O=C(Nc1ccc2oc(-c3cccnc3)nc2c1)c1ccc2c(c1)OCCO2`, the IC50 was > 10 µM (inactive).

Take `Clc1cccc(-c2nnc(SCc3nc4ccccc4[nH]3)n2Cc2ccco2)c1`: the IC50 was > 10 µM (inactive).

Turning to `Nc1c(C(=O)Nc2nccs2)sc2nc(-c3cccs3)cc(C(F)(F)F)c12`, the IC50 is > 10 µM (inactive).

For `COc1ccc(C(=O)N2CCN(C(=O)C3COc4ccccc4O3)CC2)cc1OC` (stereo unspecified), the IC50 was 4.1 µM.

As for `O=c1c2ccccc2sn1-c1cc(S(=O)(=O)N2CCOCC2)ccc1N1CCOCC1`, the IC50 is 4 µM.

As to `O=C(Nc1cccc(C(F)(F)F)c1)c1csc(-c2ccncc2)n1`, the IC50 is > 10 µM (inactive).

`Cc1ccc(C)c(N2C(=N)S/C(=C\c3ccc(-c4ccccc4C(=O)O)o3)C2=O)c1`: the IC50 was > 10 µM (inactive).

For `CCOc1ccc2[nH]c3c(N4CCN(C(=O)c5ccco5)CC4)ncnc3c2c1`, the IC50 is > 10 µM (inactive).

Turning to `O=C(O)c1ccccc1NS(=O)(=O)c1cccc(-n2sc3ccccc3c2=O)c1`, the IC50 is 4 µM.

Consider `Cc1cccc(-c2nnc(SCc3nc4ccccc4[nH]3)n2Cc2ccco2)c1`, for which the IC50 is > 10 µM (inactive).

As for `COc1cccc(-c2nnc(SCc3nc4ccccc4[nH]3)n2Cc2ccco2)c1`, the IC50 was > 10 µM (inactive).

For `COc1cc(/C=C2\SC(=S)N(NC(C)=O)C2=O)ccc1OC(=O)c1ccco1`, the IC50 was > 10 µM (inactive).

On to `Cc1c(CCC(=O)NCCCn2ccnc2)c(=O)oc2cc3oc4c(c3cc12)CCCC4`, for which the IC50 was > 10 µM (inactive).

Regarding `Cn1c(=O)c(C(=O)CN2CCCc3ccccc32)c(N)n(Cc2ccccc2)c1=O`, the IC50 was > 10 µM (inactive).
